System: PC12 cells stably transfected with RAGE and transiently transfected with mutant presenilin-2 (N141 mutant)
Assay: TUNEL apoptosis assay in transfected PC12 cells exposed to Aβ
Format: cell-based
Conditions: Aβ 0.3 and 1 μM, 24 hrs; cells co-transfected to express mutant presenilin-2 and RAGE
Method: Induction of apoptosis. For apoptosis studies, PC12 cultures, either mock-transfected (control), stably transfected with the RAGE-bearing construct or stably transfected with the RAGE-bearing construct and transiently transfected with the mutant presenilin-2 bearing construct, and were then exposed to Aβ (0.3 or 1 μM) for 24 hrs. At the end of this time, apoptosis was determined using the TUNEL assay by counting positively staining nuclei per twenty high-power fields. Under these conditions, mutant presenilin-2 by itself has little effect on apoptosis, as shown previously (FIG. 3).
Generation of Stable Transfected Cells. PC12 cells, grown as described and transfected with pcDNA3-RAGE (the latter comprised of the human RAGE cDNA) (Yan, et al., 1996) using lipofectamine (12 μg/ml) according to the manufacturer's instructions (Gibco-BRL). Cells were maintained in the presence of G418. Transient transfection was performed with a vector including mutant presenilin-2 (N141 mutant) (Wolozin et al., 1996), using lipofectamine, as described (Wolozin et al., 1996). Immunoblotting and immunostaining of PC12 cells for RAGE was performed as described previously (Yan, et al., 1996).
Apoptosis assay. The terminal deoxynucleotidyl transferase-mediated dUTP nick end labeling (TUNEL) assay was performed as described using a kit from Travigen, a peroxide-based TACS-TdTkit (Woolozin, et al., 1996). […]

Substance: Aβ: Aβ (comprised of residues 1-42), synthesized, HPLC purified, purchased from a commercial supplier
- apoptosis (TUNEL, positively staining nuclei per twenty high-power fields): dramatic increase in apoptosis

Source: US20030037344A1, “METHOD FOR EVALUATING THE ABILITY OF A COMPOUND TO INHIBIT NEUROTOXICITY” (priority 1997, published 2003)
